Each compound was assayed against PKM2 (Homo sapiens, UniProt P14618) (assay: PKM2 Assay (activation, LDH-coupled, absorbance at 340 nm)). Settings: Table 4.
Format: biochemical
Method in brief: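 Read-out was the 340 nm NADH absorbance change at 25 °C in an LDH-coupled system (PEP 0.15 mM, NADH 180 μM, ADP 0.7 mM to initiate) in 50 mM Tris pH 7.5, 100 mM KCl, 5 mM MgCl2. PKM2 at 50 ng/well was first preincubated with compound for 30 min at 4 °C. Activation given as AC50.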

PKM2, sequence (P14618 whole entry): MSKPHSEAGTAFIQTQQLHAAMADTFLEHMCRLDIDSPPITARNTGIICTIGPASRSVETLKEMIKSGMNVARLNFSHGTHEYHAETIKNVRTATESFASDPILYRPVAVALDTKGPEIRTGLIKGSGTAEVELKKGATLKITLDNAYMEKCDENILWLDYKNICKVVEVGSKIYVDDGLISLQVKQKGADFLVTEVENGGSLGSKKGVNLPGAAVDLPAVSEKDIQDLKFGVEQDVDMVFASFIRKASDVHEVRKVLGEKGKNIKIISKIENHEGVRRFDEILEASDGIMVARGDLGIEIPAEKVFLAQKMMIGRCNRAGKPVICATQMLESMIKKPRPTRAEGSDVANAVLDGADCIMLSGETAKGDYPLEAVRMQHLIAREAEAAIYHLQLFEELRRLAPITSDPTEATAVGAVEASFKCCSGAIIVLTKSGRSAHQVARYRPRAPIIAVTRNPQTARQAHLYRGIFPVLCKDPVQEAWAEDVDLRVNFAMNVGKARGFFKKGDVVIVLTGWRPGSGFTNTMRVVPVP

SMILES | AC50
CC[C@H]1CN(Cc2ccc(F)cc2)CCN1C(=O)c1ccc(NS(=O)(=O)c2cccc3cccnc23)cc1 [Compound 134, (S)—N-(4-(2-ethyl-4-(4-fluorobenzyl)piperazine-1-carbonyl)phenyl)quinoline-8-sulfonamide] | 100 to 500 nM
C[C@@H]1CN(CC2CCCO2)CCN1C(=O)c1ccc(NS(=O)(=O)c2cccc3cccnc23)cc1 (stereo partly drawn) [Compound 147, N-(4-((2R)-2-methyl-4-((tetrahydrofuran-2-yl)methyl)piperazine-1-carbonyl)phenyl)quinoline-8-sulfonamide] | < 100 nM
CC1CN(Cc2cc(F)cc(F)c2)CC(C)N1C(=O)c1ccc(NS(=O)(=O)c2cccc3cccnc23)cc1 (stereo not shown) [Compound 194, N-(4-(4-(3,5-difluorobenzyl)-2,6-dimethylpiperazine-1-carbonyl)phenyl)quinoline-8-sulfonamide] | < 100 nM
C[C@H]1CN(Cc2c(F)cc(F)cc2F)CCN1C(=O)c1ccc(NS(=O)(=O)c2cccc3cccnc23)cc1Cl [Compound 188, (S)—N-(3-chloro-4-(2-methyl-4-(2,4,6-trifluorobenzyl)piperazine-1-carbonyl)phenyl)quinoline-8-sulfonamide] | 500 to 1000 nM

Same assay, conditions: Table 5

SMILES | AC50
O=C(c1ccc(NS(=O)(=O)c2cccc3cccnc23)cc1Cl)N1CCN(CC2CCCO2)CC1 (stereo not shown) [Compound 441, N-(3-chloro-4-(4-((tetrahydrofuran-2-yl)methyl)piperazine-1-carbonyl)phenyl)quinoline-8-sulfonamide] | 1000 to 20000 nM
O=C(Cc1ccccc1F)N1CCN(C(=O)c2ccc(NS(=O)(=O)c3cccc4cccnc34)c(OC(F)(F)F)c2)CC1 [Compound 361] | 500 to 1000 nM
COc1cc(C(=O)N2CCN(C(C)(C)c3ccccc3)CC2)ccc1NS(=O)(=O)c1cccc2cccnc12 [Compound 356, N-(2-methoxy-4-(4-(2-phenylpropan-2-yl)piperazine-1-carbonyl)phenyl)quinoline-8-sulfonamide] | < 100 nM
O=C(O[C@H]1CCOC1)N1CCN(C(=O)c2ccc(NS(=O)(=O)c3cccc4cccnc34)c(OC(F)(F)F)c2)CC1 [Compound 343, (S)-Tetrahydrofuran-3-yl-4-(4-(quinoline-8-sulfonamido)-3-(trifluoromethoxy)benzoyl)piperazine-1-carboxylate] | 1000 to 20000 nM
O=C(c1ccc(NS(=O)(=O)c2cccc3cccnc23)cn1)N1CCN(CC2CC2)CC1 [Compound 415, N-(6-(4-(cyclopropylmethyl)piperazine-1-carbonyl)pyridin-3-yl)quinoline-8-sulfonamide] | 100 to 500 nM
O=C(c1ccc(NS(=O)(=O)c2cccc3cccnc23)cc1)N1CCN(C(=O)c2cc(F)cc(F)c2)CC1 [Compound 345, N-(4-(4-(3,5-difluorobenzoyl)piperazine-1-carbonyl)phenyl)quinoline-8-sulfonamide] | 100 to 500 nM
O=C(c1ccc(NS(=O)(=O)c2cccc3cccnc23)cc1Cl)N1CCN(CC2CCOC2)CC1 (stereo not shown) [Compound 429, N-(3-chloro-4-(4-((tetrahydrofuran-3-yl)methyl)piperazine-1-carbonyl)phenyl)quinoline-8-sulfonamide] | 100 to 500 nM
O=C(c1ccc(NS(=O)(=O)c2cccc3cccnc23)cc1Cl)N1CCN(CC2CCCC2)CC1 [Compound 428, N-(3-chloro-4-(4-(cyclopentylmethyl)piperazine-1-carbonyl)phenyl)quinoline-8-sulfonamide] | 100 to 500 nM
O=C(c1ccc(NS(=O)(=O)c2cccc3cccnc23)c(OC(F)(F)F)c1)N1CCN(Cc2ncccc2C(F)(F)F)CC1 [Compound 309, N-(2-(trifluoromethoxy)-4-(4-((3-(trifluoromethyl)pyridin-2-yl)methyl)piperazine-1-carbonyl)phenyl)quinoline-8-sulfonamide] | 1000 to 20000 nM

Reference: patent publication US8889667B2 (Agios Pharmaceuticals, Inc, priority 2010, dated 2014)
